Data taken from patent publication US20170312293A1, “ANTIMICROBIAL WATER DISPERSIBLE COMPOSITION COMPRISING ZINC PYRITHIONE” (KOLON LIFE SCIENCE, INC., priority 2014, published 2017).
Structures can show the parent of a compound that is named as a salt.

Experiments:
[1] = Stability of zinc pyrithione aqueous dispersion: layer separation degree via centrifugation, naked eye; format: physicochemical; conditions: zinc pyrithione aqueous dispersion including the antiseptic, layer separation degree (supernatant height / total height) via centrifugation
Procedure: (§1) First, a zinc pyrithione aqueous dispersion including an antiseptic which was identified to have antiseptic activity was prepared and then stored at room temperature (R.T.), at a temperature ranging from 10° C. to 20° C., or 60° C., and variation in physical properties related to stability and dispersibility were checked.
(§2) Variation in physical properties was determined depending on whether or not assay, viscosity, pH and particle size were changed, and variation in dispersibility was determined by checking layer separation degree using centrifugation and measuring dispersion stability using Turbiscan for detecting particle size variation and phase separation.
Stability was evaluated by checking a layer separation degree (production of supernatant) using centrifugation by the naked eye and was divided into grades based on the proportion of the height of the layer-separated supernatant with respect to the total height of the sample. With respect to the grades, layer separation degree (production of supernatant) of less than 5% was regarded as “high”, layer separation degree of 10% or less was regarded as “medium-high”, layer separation degree of 15% or less was regarded as “medium”, layer separation degree of 20% or less was regarded as “medium-low” and layer separation degree of higher than 20% was regarded as “low”.

[2] = test system: Aspergillus niger; assay: Challenge test (antibiotic activity) against A. niger; format: cell-based; conditions: for Challenge test A. niger (antibiotic activity grade): day on which all strains completely died, inoculum 1.0×10^5 cells/ml, 30° C., sampling days 1, 2, 3, 7, sample without zinc pyrithione, pH 5.5 to 9.0
Procedure: (§3) Respective samples were inoculated with three kinds of bacteria and two kinds of fungus and cultured for 7 days in order to measure antibiotic activity. On the first, second, third and seventh days, sampling was conducted, the sample was spread on a solid medium and antibiotic activity was checked. Strains used to measure antibiotic activity were Escherichia coli, Staphylococcus aureus, Pseudomonas aeruginosa for bacteria, and Candida albicans and Aspergillus niger for fungus. Regarding the media used respectively for the strains, TSA (tryptic soy agar) and NB (nutrient broth) were used for the three types of bacteria, and SDA (Sabouraud dextrose agar) and YM (yeast extract and malt extract) were used for Candida albicans (C. albicans), and SDA (Sabouraud dextrose agar) and MD (malt extract and dextrose) were used for Aspergillus niger (A. niger).
(§4) Antibiotic activity was evaluated based on the day on which all strains completely died, rather than lived and grew in the sample spread on the solid medium. First day death was considered to be excellent, second day death was considered to be good, third day death was considered to be medium, seventh day death was considered to be bad and no death until the seventh day was considered to be extremely bad.
(§5) A more detailed test method is as follows. […] 50 g of an aqueous dispersion supplemented with a suitable concentration of antibiotic agent was added to the container to prepare a sample. In consideration of the test method, in order to test zinc pyrithione having antibiotic activity, antibiotic activity of zinc pyrithione was preferably removed using a neutralization agent, but water was inevitably used to adjust a predetermined volume without adding zinc pyrithione due to absence of a suitable neutralization agent.
(§6) The prepared sample was inoculated with 1.0×10^6 cells/ml of E. coli, S. aureus and P. aeruginosa, and with 1.0×10^5 cells/ml of C. albicans and A. niger. Then, E. coli, S. aureus and P. aeruginosa were cultured at 37° C., while C. albicans and A. niger were cultured at 30° C. At the point of times of 1, 2, 3 and 7 days after culture, […] of the sample was obtained and spread on a solid medium and E. coli, S. aureus and P. aeruginosa were then cultured at 37° C. for 1 day for, and C. albicans and A. niger were cultured at 30° C. for 2 days. Then, whether the strains were alive or dead was checked. The respective antiseptics were used with reference to optimal pH, dosage and MIC recommended by the company of manufacture, wherein the test pH conditions were pH 5.5 to 9.0 at which zinc pyrithione was stable.

[3] = test system: Escherichia coli; assay: Challenge test (antibiotic activity) against E. coli; format: cell-based; conditions: day on which all strains completely died; inoculum 1.0×10^6 cells/ml, 37° C., sampling days 1, 2, 3, 7; sample without zinc pyrithione, pH 5.5 to 9.0
Procedure: as §3, §4, §5, §6

[4] = Dispersion stability by Turbiscan (Turbiscan stability index); format: physicochemical; conditions: zinc pyrithione aqueous dispersion with the antiseptic stored at 60° C. for 2 weeks, lower = more stable, 0 = no variation
Procedure: as §1, §2
Meanwhile, from the result of determination of stability via separate testing of the zinc pyrithione aqueous dispersion composition using the Turbiscan, it could seen that the result obtained by storing at 60° C. for 2 weeks was similar to the result obtained by storing at room temperature for 3 months. Therefore, stability of the zinc pyrithione aqueous dispersion was compared based on stability index (Turbiscan stability index) associated with the result obtained by storing the test subject substances at 60° C. for 2 weeks.
In addition, the stability of conventionally used antiseptics was measured as Turbiscan-related stability and the result thus obtained is shown as a stability index in the following Table 2. […]

[5] = test system: Candida albicans; assay: Challenge test (antibiotic activity) against C. albicans; format: cell-based; conditions: day on which all strains completely died; inoculum 1.0×10^5 cells/ml, 30° C., sampling days 1, 2, 3, 7; sample without zinc pyrithione, pH 5.5 to 9.0
Procedure: as §3, §4, §5, §6

[6] = test system: Pseudomonas aeruginosa; assay: Challenge test (antibiotic activity) against P. aeruginosa; format: cell-based; conditions: day on which all strains completely died; inoculum 1.0×10^6 cells/ml, 37° C., sampling days 1, 2, 3, 7; sample without zinc pyrithione, pH 5.5 to 9.0
Procedure: as §3, §4, §5, §6

[7] = test system: Staphylococcus aureus; assay: Challenge test (antibiotic activity) against S. aureus; format: cell-based; conditions: day on which all strains completely died; inoculum 1.0×10^6 cells/ml, 37° C., sampling days 1, 2, 3, 7; sample without zinc pyrithione, pH 5.5 to 9.0
Procedure: as §3, §4, §5, §6

Molecule	Stability of zinc pyrithione aqueous dispersion [1]	Challenge test A. niger (antibiotic activity grade) [2]	Challenge test E. coli (antibiotic activity grade) [3]	Stability index at 60° C. × 2 weeks [4]	Challenge test C. albicans (antibiotic activity grade) [5]	Challenge test P. aeruginosa (antibiotic activity grade) [6]	Challenge test S. aureus (antibiotic activity grade) [7]	Antibiotic activity to A. niger ([2]; conclusion in words from the challenge test)
CCCCC(O)CO (stereo not shown) [1,2-hexanediol]	Medium (layer separation degree of 15% or less was regarded as “medium”)	–	–	–	–	–	–	–
CCCCCCC(O)CO (stereo not shown) [1,2-octanediol]	Medium (layer separation degree of 15% or less was regarded as “medium”)	–	–	–	–	–	–	–
OCc1ccccc1 [Benzyl alcohol]	Medium-low (layer separation degree of 20% or less was regarded as “medium-low”)	–	–	–	–	–	–	–
CC1(C)C(=O)N(CO)C(=O)N1CO [DMDMH, dimethylol dimethylhydantoin, reference compound]	High (layer separation degree (production of supernatant) of less than 5% was regarded as “high”)	Excellent (First day death was considered to be excellent)	Excellent (First day death was considered to be excellent)	3.9	Excellent (First day death was considered to be excellent)	Excellent (First day death was considered to be excellent)	Excellent (First day death was considered to be excellent)	–
Cn1sccc1=O [MIT, methylisothiazolinone, reference compound]	High (layer separation degree (production of supernatant) of less than 5% was regarded as “high”)	Excellent (First day death was considered to be excellent)	Excellent (First day death was considered to be excellent)	3.9	Excellent (First day death was considered to be excellent)	Excellent (First day death was considered to be excellent)	Excellent (First day death was considered to be excellent)	–
C/C=C/C=C/C(=O)[O-].[K+] [Potassium sorbate]	–	Good (second day death was considered to be good)	Good (second day death was considered to be good)	–	–	Good (second day death was considered to be good)	Good (second day death was considered to be good)	–
O=C([O-])c1ccccc1.[Na+] [Sodium benzoate]	–	Good (second day death was considered to be good)	Good (second day death was considered to be good)	–	–	Good (second day death was considered to be good)	Good (second day death was considered to be good)	–
O=S([O-])S(=O)(=O)[O-].[Na+].[Na+] [Sodium metabisulfite]	–	Good (second day death was considered to be good)	Good (second day death was considered to be good)	–	–	Good (second day death was considered to be good)	Good (second day death was considered to be good)	–
O=C([O-])c1ccccc1O.[Na+] [Sodium salicylate]	–	Good (second day death was considered to be good)	Good (second day death was considered to be good)	–	–	Good (second day death was considered to be good)	Good (second day death was considered to be good)	–
O=S([O-])[O-].[Na+].[Na+] [Sodium sulfite]	High (layer separation degree (production of supernatant) of less than 5% was regarded as “high”)	Good (second day death was considered to be good)	Good (second day death was considered to be good)	–	–	Good (second day death was considered to be good)	Good (second day death was considered to be good)	–
Cc1ncc(C[n+]2csc(CCO)c2C)c(N)n1 [Thiamine dilauryl sulfate, thiamine dilauryl sulphate]	–	Bad (seventh day death was considered to be bad)	Good (second day death was considered to be good)	–	Good (second day death was considered to be good)	Good (second day death was considered to be good)	Excellent (First day death was considered to be excellent)	vulnerable
Ethylhexyl glycerin	–	Medium (third day death was considered to be medium)	Good (second day death was considered to be good)	–	Good (second day death was considered to be good)	Extremely bad (no death until the seventh day was considered to be extremely bad)	Good (second day death was considered to be good)	–
